Earlier results, collected in PubChem BioAssay AID1259409 (Chemical Carcinogenesis Research Information System (CCRIS), 2018).

Test system: rodent chemically induced tumor inhibition, incidence and multiplicity
Assay: CCRIS tumor inhibitor studies
Details: Route [Inhibitor]: ORAL

SMILES: Cc1c(C)c2c(c(C)c1O)CC[C@@](C)(CCC[C@H](C)CCC[C@H](C)CCCC(C)C)O2
- tumour outcome (control, treated, inhibition, significance) (Carcinogen: 1,2-DIMETHYLHYDRAZINE, 540-73-8, Dose [Inhibitor]: 600 MG/KG OF DIET DAILY STARTING AT AGE 10 WK AND CONTINUING FOR DURATION OF STUDY (STUDY DURATION: 28 WK), Species: MOUSE, Strain/Sex: LACA/MALE, Target Tissue: Type of Lesion: COLON: ADENOMA, CARCINOMA, Dose [Carcinogen]: 10 MG/KG BW 1/WK FOR 28 WK, Promoter: NONE USED): 34/42 (81%), 31/51 (61%), 25%, p<0.25
- tumour outcome (control, treated, inhibition, significance) (Carcinogen: 2-AMINO-1-METHYL-6-PHENYL-1H-IMIDAZO[4,5-B]PYRID INE, 105650-23-5, Dose [Inhibitor]: 0, 1% IN THE DIET FOR 52 WK (STUDY DURATION: 52 WK), Species: RAT, Strain/Sex: F344/FEMALE, Target Tissue: Type of Lesion: MAMMARY GLAND: ADENOCARCINOMA FIBROADENOMA, Dose [Carcinogen]: 0.02% IN THE DIET FOR 52 WK, Promoter: NONE USED): 2/20 (10%), 1/20 (5%), 50%, not significant
- tumour outcome (control, treated, inhibition, significance) (Carcinogen: 2-AMINO-1-METHYL-6-PHENYL-1H-IMIDAZO[4,5-B]PYRID INE, 105650-23-5, Dose [Inhibitor]: 0, 1% IN THE DIET FOR 52 WK (STUDY DURATION: 52 WK), Species: RAT, Strain/Sex: F344/FEMALE, Target Tissue: Type of Lesion: MAMMARY GLAND: ADENOCARCINOMA, Dose [Carcinogen]: 0.02% IN THE DIET FOR 52 WK, Promoter: NONE USED): 8/20 (40%), 4/20 (20%), 50%, not significant
- tumour outcome (control, treated, inhibition, significance) (Carcinogen: 2-AMINO-1-METHYL-6-PHENYLIMIDAZO[4,5-B]PYRIDINE [105650-23-5], Dose [Inhibitor]: 0.5% IN DIET FOR 54 WK (STUDY DURATION: 54 WK), Species: RAT, Strain/Sex: F344/DUCRJ/FEMALE, Target Tissue: Type of Lesion: COLON: ADENOMA OR ADENOCARCINOMA, Dose [Carcinogen]: 0.02% IN DIET FOR 54 WK (STUDY DURATION: 54 WK), Promoter: NONE): 3/20 (15%), 1/20 (5%), 67%, not significant
- tumour outcome (control, treated, inhibition, significance) (Carcinogen: 2-AMINO-1-METHYL-6-PHENYLIMIDAZO[4,5-B]PYRIDINE [105650-23-5], Dose [Inhibitor]: 0.5% IN DIET FOR 54 WK (STUDY DURATION: 54 WK), Species: RAT, Strain/Sex: F344/DUCRJ/FEMALE, Target Tissue: Type of Lesion: MAMMARY GLAND: ADENOMA OR ADENOCARCINOMA, Dose [Carcinogen]: 0.02% IN DIET FOR 54 WK (STUDY DURATION: 54 WK), Promoter: NONE): 8/20 (40%), 4/20 (20%), 50%, not significant
- tumour outcome (control, treated, inhibition, significance) (Carcinogen: 3,2'-DIMETHYL-4-AMINOBIPHENYL, 13394-86-0, Dose [Inhibitor]: 0, 1% IN BASAL DIET BEGINNING POST CARCINOGEN TREATMENT AND CONTINUING FOR 40 WK (STUDY DURATION: 60 WK), Species: RAT, Strain/Sex: F344/MALE, Target Tissue: Type of Lesion: LARGE INTESTINE: ADENOMA AND ADENOCARCINOMA, Dose [Carcinogen]: 50 MG/KG 1/2 WK FOR 20 WK TO RATS MAINTAINED ON ETHINYL ESTRADIOL CONTAINING DIET (0.75 PPM) FOR 1 WK CYCLED WITH ETHINY, Promoter: ETHINYL ESTRADIOL, 57-63-6): 3/10 (30%), 4/12 (33%), -10%, not significant
- tumour outcome (control, treated, inhibition, significance) (Carcinogen: 3,2'-DIMETHYL-4-AMINOBIPHENYL, 13394-86-0, Dose [Inhibitor]: 0, 1% IN BASAL DIET BEGINNING POST CARCINOGEN TREATMENT AND CONTINUING FOR 40 WK (STUDY DURATION: 60 WK), Species: RAT, Strain/Sex: F344/MALE, Target Tissue: Type of Lesion: PREPUTIAL GLAND: ADENOMA AND CARCINOMA, Dose [Carcinogen]: 50 MG/KG 1/2 WK FOR 20 WK TO RATS MAINTAINED ON ETHINYL ESTRADIOL CONTAINING DIET (0.75 PPM) FOR 1 WK CYCLED WITH ETHINY, Promoter: ETHINYL ESTRADIOL, 57-63-6): 5/10 (50%), 6/12 (50%), 0%, not significant
- tumour outcome (control, treated, inhibition, significance) (Carcinogen: 3,2'-DIMETHYL-4-AMINOBIPHENYL, 13394-86-0, Dose [Inhibitor]: 0, 1% IN BASAL DIET BEGINNING POST CARCINOGEN TREATMENT AND CONTINUING FOR 40 WK (STUDY DURATION: 60 WK), Species: RAT, Strain/Sex: F344/MALE, Target Tissue: Type of Lesion: SMALL INTESTINE: ADENOMA AND ADENOCARCINOMA, Dose [Carcinogen]: 50 MG/KG 1/2 WK FOR 20 WK TO RATS MAINTAINED ON ETHINYL ESTRADIOL CONTAINING DIET (0.75 PPM) FOR 1 WK CYCLED WITH ETHINY, Promoter: ETHINYL ESTRADIOL, 57-63-6): 2/10 (20%), 1/12 (8%), 60%, not significant
- tumour outcome (control, treated, inhibition, significance) (Carcinogen: 3,2'-DIMETHYL-4-AMINOBIPHENYL, 13394-86-0, Dose [Inhibitor]: 0, 1% IN BASAL DIET BEGINNING POST CARCINOGEN TREATMENT AND CONTINUING FOR 40 WK (STUDY DURATION: 60 WK), Species: RAT, Strain/Sex: F344/MALE, Target Tissue: Type of Lesion: SUBCUTIS: TUMOR, Dose [Carcinogen]: 50 MG/KG 1/2 WK FOR 20 WK TO RATS MAINTAINED ON ETHINYL ESTRADIOL CONTAINING DIET (0.75 PPM) FOR 1 WK CYCLED WITH ETHINY, Promoter: ETHINYL ESTRADIOL, 57-63-6): 1/10 (10%), 0/12 (0%), 100%, not significant
- tumour outcome (control, treated, inhibition, significance) (Carcinogen: 3,2'-DIMETHYL-4-AMINOBIPHENYL, 13394-86-0, Dose [Inhibitor]: 0, 1% IN BASAL DIET BEGINNING POST CARCINOGEN TREATMENT AND CONTINUING FOR 40 WK (STUDY DURATION: 60 WK), Species: RAT, Strain/Sex: F344/MALE, Target Tissue: Type of Lesion: ZYMBAL GLAND: ADENOMA AND CARCINOMA, Dose [Carcinogen]: 50 MG/KG 1/2 WK FOR 20 WK TO RATS MAINTAINED ON ETHINYL ESTRADIOL CONTAINING DIET (0.75 PPM) FOR 1 WK CYCLED WITH ETHINY, Promoter: ETHINYL ESTRADIOL, 57-63-6): 2/10 (20%), 1/12 (8%), 60%, not significant
